Data published in patent US4590205A, “Antiinflammatory and/or analgesic 2,3-diaryl-5-halo thiophenes” (E. I. Du Pont de Nemours and Company, priority 1984, dated 1986).
Like-named read-outs stand apart in the source and are kept apart here.

Legend:
[1] = tested on: characteristic stretching or writhing syndrome which is indicative of pain induced by phenylquinone; test: Phenylquinone writhing test (PQW), analgesic activity; format: in vivo, female white mice; conditions: Mus musculus, read-out: PQW ED50
Procedure: A test compound suspended in 1% methylcellulose was given orally to fasted (17-21 hours) female white mice, 5-20 animals per double blind test. Aqueous (0.01% phenyl-p-benzoquinone) phenylquinone, 0.20 ml per mouse, was injected intraperitoneally 6 minutes before observations were begun.

[2] = tested on: adjuvant-induced arthritis in rats; test: Established adjuvant-induced arthritis in rats (decrease of paw volume); format: in vivo, Charles River Lewis male rats; conditions: for ED50: Rattus norvegicus, read-out: Adjuvant Arthritis ED50
[3] = oral, fasted mice, effective analgesic dose for 50% of the mice
[4] = oral gavage, 7 daily doses, ED50% decrease from control paw volume

Compound	ED50 ([1]; po)	ED50 ([2]; po)	ED50 [1, 3]	ED50 [2, 4]	% Decrease from control paw volume at indicated daily dose ([2]; daily dose 81 (mg/kg), oral)
CC(=O)Oc1ccccc1C(=O)O [Aspirin, aspirin, reference compound]	135 mg/kg	305 mg/kg			
Fc1ccc(-c2cc(Br)sc2-c2ccc(F)cc2)cc1 [Example 1, 5-Bromo-2,3-bis(4-fluorophenyl)thiophene]			6.8 mg/kg	> 60 mg/kg	
COc1ccc(-c2cc(Cl)sc2-c2ccc(OC)cc2)cc1 [Example 2, 5-Chloro-2,3-bis(4-methoxyphenyl)thiophene]			2.1 mg/kg	4.5 mg/kg	
COc1ccc(-c2cc(I)sc2-c2ccc(OC)cc2)cc1 [Example 3, 5-Iodo-2,3-bis(4-methoxyphenyl)thiophene]			< 15 mg/kg		46%
CSc1ccc(-c2sc(Br)cc2-c2ccc(F)cc2)cc1 [Example 5, 5-bromo-3-(4-fluorophenyl)-2-(4-methylthiophenyl)thiophene]			> 108 mg/kg	1.4 mg/kg	
CSc1ccc(-c2cc(Br)sc2-c2ccc(F)cc2)cc1 [Example 6, 5-bromo-2-(4-fluorophenyl)-3-(4-methylthiophenyl)thiophene]			> 108 mg/kg	0.25 mg/kg	
Cc1ccc(-c2cc(Br)sc2-c2ccc(C)cc2)cc1 [Example 7]			2.9 mg/kg	> 81 mg/kg	
COc1ccc(-c2cc(Br)sc2-c2ccc(SC)cc2)cc1 [Example 8]			< 15 mg/kg	2.9 mg/kg	
CS(=O)(=O)c1ccc(-c2sc(Br)cc2-c2ccc(F)cc2)cc1 [Example 9, 5-bromo-3-(4-fluorophenyl)-2-(4-methylsulfonylphenyl)thiophene]			> 108 mg/kg	0.4 mg/kg	
CC(C)Cc1ccc(C(C)C(=O)O)cc1 (stereo not drawn) [Ibuprofen, ibuprofen, reference compound]			10 mg/kg	100 mg/kg	
COc1ccc2c(c1)c(CC(=O)O)c(C)n2C(=O)c1ccc(Cl)cc1 [Indomethacin, indomethacin, reference compound]	0.35 mg/kg	0.3 mg/kg			
CCCCC1C(=O)N(c2ccccc2)N(c2ccccc2)C1=O [Phenylbutazone, phenylbutazone, reference compound]			80 mg/kg	10 mg/kg	
